Experimental data: patent publication US20250275993A1, “GLYCOSYLATION INHIBITORS AS THERAPEUTICS FOR STROKE” (The Regents of the University of California, priority 2022, published 2025)

Columns and labels:
[1] = target: T1, α-mannosidase from Jack Bean (Canavalia ensiformis, UniProt C0HJB3); test: α-mannosidase activity assay; type: biochemical; conditions: 400 μM
T1 construct: purchased M7257
Procedure: a-mannosidase activity was measured using substrate p-nitrophenyl α-mannopyranoside (1 mM). Enzyme from Jack Bean (M7257) (final concentration of 0.077 U) was incubated at 37° C. in a final volume of 50 μl of 50 mM potassium phosphate buffer, pH 7.5. α-glucosidase was assayed with substrate p-nitrophenyl a-glucoside (7 mM). Enzyme from Saccharomyces cerevisiae-type 1 (Sigma, G5003) (final concentration of 0.1 U) was incubated at 37° C. in a final volume of 50 μl of PBS, pH 7.5. β-Glucosidase was assayed with substrate 4-nitrophenyl β-D-glucopyranoside (Roche). Enzyme from almond (Sigma, G0395) (final concentration of 0.002 U) was incubated at 37° C. in a final volume of 50 μl of PBS, pH 7.5 […]. The incubation was stopped by addition of an equal volume of acid-based stop solution (R&D systems, 895032). Enzymatic activity was measured at 405 nm. α-glucosidase from Saccharomyces cerevisiae type I (G5003) with p-nitrophenyl α-D-glucopyranoside (Sigma, N1377) as the substrate.

[2] = tested on: human retinal microvascular EC (hRMECs); test: hRMEC proliferation assay; type: cell-based
Procedure: (§1) Proliferation assays with BCECs and BRECs were performed. Log-phase growing BCECs or BRECs (passage <10) were trypsinized, re-suspended and seeded in 96-well plates (no coating) in low-glucose DMEM supplemented with 10% bovine calf serum, 2 mM glutamine, and antibiotics (growth medium), at a density of 1200-1500 cells per well in 200 μl volume. All reagents were added at the indicated final concentrations. After 3-6 days, cells were incubated with AlamarBlue for 4 hrs. Fluorescence was measured at 530 nm excitation wavelength and 590 nm emission wavelength. The experiments were repeated at least three times. To create a hypoxic condition, cells were placed in a hypoxia incubator with a mixture of gas consisting of 1% O2, 5% CO2 and 94% N2. On each 96-well plate, untreated and VEGF-treated (10/ng/ml) wells were included to monitor plate-to-plate variations. 20% methanol or 0.05% DMSO served as negative controls. […] Human RMVECs and human adult DMVECs were split into Gelatin-coated 96 wells (2000 cells per well) in low glucose DMEM containing 10% FBS. 1200 cells/well was set up for proliferation assay in low glucose media containing 0.5% FBS. Data was collected at day 4 or 5. HUVEC (p7-10) were grown on gelatin-coated plate until it reached 70-80% confluency.

[3] = tested on: dermal microvascular endothelial cells (hDMVECs); test: hDMVEC proliferation assay; type: cell-based, human
Procedure: as §1
(§2) Proliferation assays with fibroblasts were done in low-glucose DMEM containing 1% FBS, with or without 10 ng/ml bFGF, or 100 ng/ml human EGF and the assay was ended at day 3. ARPE-19 cells were gently lifted with 0.025% trypsin and plated in RtEGM media (Clonetics) containing 2% FBS, L-glutamine, human bFGF and GA-1000. Once cells were attached to plates, serum-free RtEGM media was used to maintain the cultures. For proliferation assays, 1500 human RPE cells were plated into 96-well plates in low-glucose DMEM containing 1% FBS. A673, U87MG, Calu6 and AML12 cells were grown until confluent and were then harvested and re-suspended in appropriate assay media. […] Four days later, tumor cell growth was measured by the MTS assay (Promega, Madison, WI), a colorimetric assay that measures metabolic activity of viable cells. […]

[4] = tested on: HUVEC; test: HUVEC proliferation assay; type: cell-based, human
Procedure: as §1
On the day of the assay, cells were dissociated with 0.05% trypsin, which was neutralized with 0.5% FBS-containing EBM. Cells were briefly spun and then re-suspended in 0.5% FBS-media. Cells were counted and plated in 96-well, 1000 cells/well. Triplicate wells were used for each treatment. Data were collected at day 3, and then cells were fixed in 4% paraformaldehyde for 15 min before adding crystal violet. Cell-covered areas were quantified after taking pictures by Image J software.

[5] = tested on: NIH3T3 fibroblasts; test: NIH3T3 proliferation assay; type: cell-based, mouse; conditions: alone or in combination with growth factors
Procedure: as §2, with “media. For proliferation assays, cells were plated at the density of 1000-2000 cells/well in low-glucose DMEM containing 5% FBS or otherwise stated. Bovine pituitary cells (pituitary folliculostellate cells) were isolated as previously described. For proliferation assays with human epidermal keratinocytes, human DMVECs and human dermal fibroblast cells, 1000 cells/well were plated in low-glucose DMEM containing 1% FBS with or without various growth factors. The assay was ended at day 3 for bovine pituitary cells and at day 4 for all the other cell types.” for “media.”

T1 sequence (C0HJB3 whole entry): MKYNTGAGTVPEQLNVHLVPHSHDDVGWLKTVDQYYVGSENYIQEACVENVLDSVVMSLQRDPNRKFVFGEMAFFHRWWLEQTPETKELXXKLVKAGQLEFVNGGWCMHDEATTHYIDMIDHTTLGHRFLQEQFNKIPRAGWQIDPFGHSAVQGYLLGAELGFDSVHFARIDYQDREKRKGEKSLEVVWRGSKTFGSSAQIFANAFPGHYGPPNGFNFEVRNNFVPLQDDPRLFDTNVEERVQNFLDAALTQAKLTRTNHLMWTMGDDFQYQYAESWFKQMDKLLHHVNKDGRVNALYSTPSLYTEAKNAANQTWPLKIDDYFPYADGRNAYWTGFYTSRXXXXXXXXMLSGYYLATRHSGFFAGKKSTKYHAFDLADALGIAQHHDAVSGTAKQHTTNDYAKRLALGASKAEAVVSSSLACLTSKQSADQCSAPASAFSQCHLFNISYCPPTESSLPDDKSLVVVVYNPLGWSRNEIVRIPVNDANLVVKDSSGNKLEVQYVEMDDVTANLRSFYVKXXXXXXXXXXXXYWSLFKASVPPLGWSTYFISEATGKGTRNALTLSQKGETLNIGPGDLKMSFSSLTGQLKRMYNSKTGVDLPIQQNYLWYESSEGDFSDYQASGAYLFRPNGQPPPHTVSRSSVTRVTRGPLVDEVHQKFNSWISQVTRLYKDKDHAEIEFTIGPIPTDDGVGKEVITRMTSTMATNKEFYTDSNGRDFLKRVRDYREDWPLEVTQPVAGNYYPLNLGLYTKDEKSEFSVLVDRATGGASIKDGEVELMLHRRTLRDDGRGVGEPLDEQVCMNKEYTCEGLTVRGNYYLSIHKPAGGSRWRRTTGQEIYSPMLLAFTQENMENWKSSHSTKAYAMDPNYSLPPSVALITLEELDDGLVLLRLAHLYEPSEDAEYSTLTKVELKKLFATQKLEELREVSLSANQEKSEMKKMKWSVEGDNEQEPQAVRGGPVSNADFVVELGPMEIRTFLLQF

N[C@H](C=O)[C@@H](O)[C@H](O)[C@H](O)CO [ManN, 2-Amino-2-deoxy-D-mannose]
inhibitory activity on α-mannosidase [1]: inhibitory activity
toxicity on hRMECs ([2]; 5 mM ManN): minimal toxicity
additivity with VEGF on hRMEC proliferation ([2]; with VEGF): dose-dependent additivity with VEGF
toxicity on hDMVECs ([3]; 5 mM ManN): minimal toxicity
hDMVECs growth, ManN by itself ([3]; ManN alone): stimulated
additivity with VEGF on hDMVEC proliferation ([3]; with VEGF): dose-dependent additivity with VEGF
toxicity on HUVEC ([4]; 5 mM ManN): minimal toxicity
HUVEC growth, ManN by itself ([4]; ManN alone): stimulated
additivity with VEGF on HUVEC proliferation ([4]; with VEGF): dose-dependent additivity with VEGF
proliferation of NIH3T3 cells [5]: no increases in proliferation
